Results as given in patent US5872144A, “4-aminoethoxyindazole derivatives” (American Home Products Corporation, priority 1998, dated 1999).

Assays:
[1] = biological target: T1, dopamine autoreceptor (D2) (Rattus norvegicus, UniProt P61169); assay: 3H-quinpirole (D2 Quin.) binding, homogenized rat striatal brain tissue, affinity for dopamine autoreceptor
T1 construct: homogenized rat striatal brain tissue; from tissue; host or cells: rat striatum, homogenate
Method: Affinity for the dopamine autoreceptor was established by a modification of the standard experimental test procedure of Seemen and Schaus, European Journal of Pharmacology 203, 105-109, 1991, wherein homogenized rat striatal brain tissue is incubated with ^3 H-quinpirole (Quin.) and various concentrations of test compound, filtered and washed and counted in a Betaplate scintillation counter.

dopamine D-2 receptor = biological target: T2, dopamine D-2 receptor (Rattus norvegicus, UniProt P61169); assay: 3H-spiroperidol (D2 Spiper.) binding, homogenized limbic brain tissue
T2 construct: from tissue; host or cells: limbic brain tissue, homogenate
Method: High affinity for the dopamine D-2 receptor was established by the standard experimental test procedure of Fields, et al., Brain Res., 136, 578 (1977) and Yamamura et al., eds., Neurotransmitter Receptor Binding, Raven Press, N.Y. (1978) wherein homogenized limbic brain tissue is incubated with ^3 H-spiroperidol (Spiper.) and various concentrations of test compound, filtered and washed and shaken with Hydrofluor scintillation cocktail (National Diagnostics) and counted in a Packard 460 CD scintillation counter.

dopamine D2 receptor = assay: Intrinsic activity at the dopamine D2 receptor, ratio LowAg/HighAg; format: binding; conditions: D2 Spiper IC50 / D2 Quin. IC50 (LowAg/HighAg)
Description: Efforts to induce antipsychotic activity with dopamine autoreceptor agonists have been successful (Dorsini et al., Adv. Biochem. […] et al., Science, 200, 567-568, 1975; and […] et al., Psychiatry, 398-402, 1986). […] Pharm., 42, 432-438, (1993)]. Intrinsic activity is predicted using the ratio of the "low-affinity agonist" (LowAg) state of the receptor and the "high-affinity agonist" ([…]) state of the receptor, […]. These ratios correlate with the agonist, partial agonist, and antagonist activities of a given compound, which activities characterize a compounds ability to elicit an antipsychotic effect. […] Activation of the dopamine autoreceptors results in reduced neuronal firing a well as inhibition of dopamine synthesis and release and therefore provide a means of controlling hyperactivity of the dopaminergic systems. The compounds of this invention were also found to have high intrinsic activity and therefore they can behave as the natural neurotransmitter i.e. as full agonists. […] Affinity for the dopamine autoreceptor was established by a modification of the standard experimental test procedure of Seemen and Schaus, European Journal of Pharmacology 203, 105-109, 1991, wherein homogenized rat striatal brain tissue is incubated with ^3 H-quinpirole (Quin.) and various concentrations of test compound, filtered and washed and counted in a Betaplate scintillation counter. […]

T1 sequence (P61169 whole entry): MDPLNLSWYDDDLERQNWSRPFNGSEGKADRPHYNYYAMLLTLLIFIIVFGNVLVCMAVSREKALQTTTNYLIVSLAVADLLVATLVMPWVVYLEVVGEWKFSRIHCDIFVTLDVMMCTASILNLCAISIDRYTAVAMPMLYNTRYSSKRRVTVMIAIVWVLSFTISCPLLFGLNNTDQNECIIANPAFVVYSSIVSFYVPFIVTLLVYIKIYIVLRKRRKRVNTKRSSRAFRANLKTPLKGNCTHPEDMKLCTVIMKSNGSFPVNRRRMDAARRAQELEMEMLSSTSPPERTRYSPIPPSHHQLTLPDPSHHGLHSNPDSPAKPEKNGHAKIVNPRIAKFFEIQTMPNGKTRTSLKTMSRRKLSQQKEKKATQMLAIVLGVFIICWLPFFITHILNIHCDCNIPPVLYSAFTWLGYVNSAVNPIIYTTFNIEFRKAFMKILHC
T2 sequence (P61169 whole entry): as above

IC50 [1] [nM]	IC50 (dopamine D-2 receptor) [nM]	Ratio (dopamine D2 receptor)	Structure (SMILES)
2.23	333	151	c1ccc(CNCCOc2cccc3[nH]ncc23)cc1 [Example 1, Benzyl-[2-(1H-indazo-4-yloxy)-ethyl]-amine]
4.3	1090	254	c1csc(CNCCOc2cccc3[nH]ncc23)c1 [Example 2, [2-(1H-Indazol-4-yloxy)-ethyl]-thiophen-2-ylmethyl-amine]
2.78			c1cc(OCCNCc2ccsc2)c2cn[nH]c2c1 [Example 3, [2-(1H-Indazol-4-yloxy)-ethyl]-thiophen-3-ylmethyl-amine]
